Experimental data as given in patent publication US20240398812A1 (Caraway Therapeutics, Inc., priority 2021, published 2024).

Tests used:
[1] = target: T1, TRPML3 (Homo sapiens, UniProt Q8TDD5); experiment: Fluorescent TRPML3 assay (as for TRPML1); type: cell-based
T1 construct: expressed in transfected cells
T1 sequence (Q8TDD5 1-553): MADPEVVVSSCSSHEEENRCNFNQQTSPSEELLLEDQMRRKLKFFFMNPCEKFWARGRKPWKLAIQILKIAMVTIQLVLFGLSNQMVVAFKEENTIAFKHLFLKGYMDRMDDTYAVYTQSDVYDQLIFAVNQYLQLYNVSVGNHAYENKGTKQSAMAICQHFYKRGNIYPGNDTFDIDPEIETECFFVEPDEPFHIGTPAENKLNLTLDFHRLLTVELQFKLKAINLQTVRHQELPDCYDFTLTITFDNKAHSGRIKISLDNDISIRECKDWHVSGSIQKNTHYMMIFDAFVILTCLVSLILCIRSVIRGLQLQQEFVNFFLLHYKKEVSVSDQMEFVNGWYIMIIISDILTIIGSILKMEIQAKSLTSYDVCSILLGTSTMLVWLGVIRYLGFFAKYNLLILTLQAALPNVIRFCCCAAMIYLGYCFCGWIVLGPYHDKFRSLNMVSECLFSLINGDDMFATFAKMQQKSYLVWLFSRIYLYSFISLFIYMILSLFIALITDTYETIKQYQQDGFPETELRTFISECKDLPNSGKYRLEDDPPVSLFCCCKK
Experimental: (§1) HEK-293 Trex cells were stably transfected with a construct consisting of the human coding sequence for TRPML1 cloned into the tet-inducible plasmid pCDNA5 T/O. Mutations were introduced into the TRPML1 sequence to facilitate expression on the cell surface (Silvia Vergarajauregui, Rosa Puertollano Traffic. 2006 March; 7 (3): 337-353). Briefly, the cells are cultured in 150 mm round tissue culture dishes containing 20 mL of media. The day before the assay the cells are rinsed with DPBS —Ca—Mg and then treated briefly with Trypsin-EDTA. The Trypsin-EDTA is diluted with growth media, and cells are counted. 38×10^6 cells are re-plated into 150 mm round tissue culture dishes in media containing 0.5 ug/mL doxycycline to induce expression of hTRPML1.
(§2) The day of the experiment cells are lifted from the plates as above and collected by centrifugation. The cells are then suspended in dye loading buffer consisting of Ringer's solution supplemented with 0.1% Pluronic Acid and 1 micromolar Fluo4-AM dye. Cells are loaded for ˜60 minutes in the dark with occasional mixing. The cells are collected by centrifugation, the loading media aspirated, and the cells resuspended in 25 mL Ringer's solution and incubated ˜60 minutes in the dark. The cells are again collected by centrifugation, rinsed in Ringer's Solution and resuspended to 0.2×10^6 cells/mL in modified Ringer's solution containing 10 mM calcium.
(§3) Compounds are dissolved to a concentration of 10 millimolar with DMSO. Compound plates are created by dispensing compounds into 384 well black wall clear bottom plates (Greiner 781091). Positive and negative controls are included on each plate. Typically, different amounts of each compound are tested ranging from 100 nanoMoles (20 micromolar final concentration) decreasing in half-log steps to 31 picoMoles (6 nanomolar final concentration). Each concentration is typically tested in triplicate.
(§4) 50 microliters of dye-loaded cells are dispensed into each well of the compound assay plate created above. The fluorescence in each well is then determined with an excitation wavelength of 480 nm and an emission wavelength of 540 nm using either a Molecular Devices SpectraMax multimode plate reader or a Hamamatsu FDSS/uCell plate imager.
(§5) The resulting fluorescence for each well is exported as an ascii file and loaded into our LIMS for analysis. The percent activity of each compound at each concentration is determined by comparison to the positive and negative control wells included in each plate.
Assays for TRPML2 and TRPML3 were performed as above for TRPML1, by substituting the appropriate TRPML2 or TRPML3 subtype for the TRPML1.
(§6) EC50 values were calculated using a non-linear regression of Prism. In the table, “A” indicates an EC50 of less than 100 nM, “B” indicates an EC50 range from 100 nM to 500 nM; “C” indicates an EC50 range from 500 nM to 2 μM; and “D” indicates an EC50 greater than 2 μM.

[2] = target: human TRPML1 (Homo sapiens, UniProt Q9GZU1); experiment: Fluorescent TRPML1 assay (Fluo4-AM calcium fluorescence, HEK-293 Trex cells); type: cell-based
Experimental: as §1, §2, §3, §4, §5, §6

Sequence of human TRPML1 (Q9GZU1 whole entry L15A/L16A/L577A/L578A, form open): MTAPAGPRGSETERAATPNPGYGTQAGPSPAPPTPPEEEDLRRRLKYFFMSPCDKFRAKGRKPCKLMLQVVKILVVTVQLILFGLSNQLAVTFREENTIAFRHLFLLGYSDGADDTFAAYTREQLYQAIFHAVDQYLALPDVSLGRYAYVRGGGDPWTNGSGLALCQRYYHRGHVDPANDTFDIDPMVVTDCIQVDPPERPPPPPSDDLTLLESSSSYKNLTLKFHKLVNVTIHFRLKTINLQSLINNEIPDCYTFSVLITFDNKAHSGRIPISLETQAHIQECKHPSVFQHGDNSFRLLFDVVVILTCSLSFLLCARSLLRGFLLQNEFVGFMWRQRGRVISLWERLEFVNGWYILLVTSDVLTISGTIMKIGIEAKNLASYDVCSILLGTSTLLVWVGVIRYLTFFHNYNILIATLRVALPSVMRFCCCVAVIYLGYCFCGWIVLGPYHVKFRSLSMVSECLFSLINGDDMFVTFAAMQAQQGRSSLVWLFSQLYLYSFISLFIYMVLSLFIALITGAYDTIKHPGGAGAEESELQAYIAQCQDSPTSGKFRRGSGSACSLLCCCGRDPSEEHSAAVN

Row | Structure (SMILES) | EC50 ([1]; Table 3, compounds 101-177) [µM] | EC50 ([2]; Table 3, compounds 101-177) [µM] | EC50 ([1]; Table 3, compounds 201-283) [µM] | EC50 ([2]; Table 3, compounds 201-283) [µM]
1 | CCCN(CC)c1cn(-c2cc(C#N)ccn2)c2ncnc(N3CCN(C(=O)C(C)C)C[C@@H]3C)c12 [Compound 163, (S)-2-(5-(ethyl(propyl)amino)-4-(4-isobutyryl-2-methylpiperazin-1-yl)-7H-pyrrolo[2,3-d]pyrimidin-7-yl)isonicotinonitrile] | 0.1 to 0.5 | < 0.1 | – | –
2 | Cc1cn(-c2cc(C(F)(F)F)ccn2)c2ncnc(N3C[C@@H](C)N(C(=O)C(C)(C)C)C[C@@H]3C)c12 [Compound 245, 1-((2R,5S)-2,5-dimethyl-4-(5-methyl-7-(4-(trifluoromethyl)pyridin-2-yl)-7H-pyrrolo[2,3-d]pyrimidin-4-yl)piperazin-1-yl)-2,2-dimethylpropan-1-one] | – | – | 0.1 to 0.5 | < 0.1
3 | N#Cc1ccnc(-n2cc(-c3ccccc3F)c3c(N4CCN(C(=O)C5CC5)CC4)ncnc32)c1 [Compound 110, 2-(4-(4-(cyclopropanecarbonyl)piperazin-1-yl)-5-(2-fluorophenyl)-7H-pyrrolo[2,3-d]pyrimidin-7-yl)isonicotinonitrile] | 0.1 to 0.5 | 0.1 to 0.5 | – | –
4 | C[C@@H]1CN(c2ncnc3c2c(C(F)(F)F)cn3-c2cccc(C#N)c2)[C@@H](C)CN1C(=O)C(C)(C)C [Compound 222, 3-(4-((2S,5R)-2,5-dimethyl-4-pivaloylpiperazin-1-yl)-5-(trifluoromethyl)-7H-pyrrolo[2,3-d]pyrimidin-7-yl)benzonitrile] | – | – | 0.1 to 0.5 | < 0.1
5 | C[C@@H]1CN(c2ncnc3c2c(C2CCC2)cn3-c2cccc(F)c2)[C@@H](C)CN1C(=O)C1(F)CC1 [Compound 249, ((2R,5S)-4-(5-cyclobutyl-7-(3-fluorophenyl)-7H-pyrrolo[2,3-d]pyrimidin-4-yl)-2,5-dimethylpiperazin-1-yl)(1-fluorocyclopropyl)methanone] | – | – | 0.5 to 2 | 0.1 to 0.5
6 | CC(C)C(=O)N1CCN(c2ncnc3c2c(-c2ccccc2F)cn3-c2cc(C#N)n(C)c2)[C@@H](C)C1 [Compound 157, (S)-4-(5-(2-fluorophenyl)-4-(4-isobutyryl-2-methylpiperazin-1-yl)-7H-pyrrolo[2,3-d]pyrimidin-7-yl)-1-methyl-1H-pyrrole-2-carbonitrile] | 0.5 to 2 | 0.1 to 0.5 | – | –
7 | CCCN(CC)c1cn(-c2cc(C#N)ccn2)c2ncnc(N3CCN(C(=O)C(C)(C)C)C[C@@H]3C)c12 [Compound 164] | < 0.1 | < 0.1 | – | –
8 | CC(C)CC(=O)N1CCN(c2ncnc3c2c(C2CC2)cn3-c2cc(C#N)ccn2)[C@@H](C)C1 [Compound 137, (S)-2-(5-cyclopropyl-4-(2-methyl-4-(3-methylbutanoyl)piperazin-1-yl)-7H-pyrrolo[2,3-d]pyrimidin-7-yl)isonicotinonitrile] | > 2 | < 0.1 | – | –
9 | C[C@@H]1CN(c2ncnc3c2c(C2CCC2)cn3-c2cccc(Cl)c2)[C@@H](C)CN1C(=O)C1(F)CC1 [Compound 254, ((2R,5S)-4-(7-(3-chlorophenyl)-5-cyclobutyl-7H-pyrrolo[2,3-d]pyrimidin-4-yl)-2,5-dimethylpiperazin-1-yl)(1-fluorocyclopropyl)methanone] | – | – | 0.5 to 2 | 0.5 to 2
10 | C[C@H]1CN(C(=O)C(C)(C)C)CCN1c1ncnc2c1c(N1CCC1)cn2-c1cccc(F)c1 [Compound 216, (S)-1-(4-(5-(azetidin-1-yl)-7-(3-fluorophenyl)-7H-pyrrolo[2,3-d]pyrimidin-4-yl)-3-methylpiperazin-1-yl)-2,2-dimethylpropan-1-one] | – | – | > 2 | < 0.1
11 | C[C@@H]1CN(c2ncnc3c2c(N2CCC2)cn3-c2cccc(F)c2)[C@@H](C)CN1C(=O)C(C)(C)C [Compound 219, 1-((2R,5S)-4-(5-(azetidin-1-yl)-7-(3-fluorophenyl)-7H-pyrrolo[2,3-d]pyrimidin-4-yl)2,5-dimethylpiperazin-1-yl)-2,2-dimethylpropan-1-one] | – | – | < 0.1 | < 0.1
12 | CC(C)C(=O)N1C[C@H](C)N(c2ncnc3c2c(-c2ccccc2F)cn3-c2cc(Cl)ccn2)C[C@H]1C [Compound 168, 1-((2R,5S)-4-(7-(4-chloropyridin-2-yl)-5-(2-fluorophenyl)-7H-pyrrolo[2,3-d]pyrimidin-4-yl)-2,5-dimethylpiperazin-1-yl)-2-methylpropan-1-one] | < 0.1 | < 0.1 | – | –
13 | C[C@H]1CN(C(=O)CCC(F)(F)F)CCN1c1ncnc2c1c(-c1ccccc1F)cn2-c1cc(C#N)ccn1 [Compound 135, (S)-2-(5-(2-fluorophenyl)-4-(2-methyl-4-(4,4,4-trifluorobutanoyl)piperazin-1-yl)-7H-pyrrolo[2,3-d]pyrimidin-7-yl)isonicotinonitrile] | 0.1 to 0.5 | < 0.1 | – | –
14 | CC(C)C(=O)N1CCN(c2ncnc3c2c(-c2ccccc2F)cn3-c2cc(C#N)ccn2)[C@H](C)C1 [Compound 138, (R)-2-(5-(2-fluorophenyl)-4-(4-isobutyryl-2-methylpiperazin-1-yl)-7H-pyrrolo[2,3-d]pyrimidin-7-yl)isonicotinonitrile] | < 0.1 | 0.1 to 0.5 | – | –
15 | C[C@H]1CN(C(=O)C(C)(C)O)CCN1c1ncnc2c1c(N1CCC1)cn2-c1cc(C#N)ccn1 [Compound 162, (S)-2-(5-(azetidin-1-yl)-4-(4-(2-hydroxy-2-methylpropanoyl)-2-methylpiperazin-1-yl)-7H-pyrrolo[2,3-d]pyrimidin-7-yl)isonicotinonitrile] | 0.5 to 2 | 0.1 to 0.5 | – | –
16 | C[C@@H]1CN(c2ncnc3c2c(C(F)(F)F)cn3-c2cc(F)cc(F)c2)[C@@H](C)CN1C(=O)C(C)(C)C [Compound 225, 1-((2R,5S)-4-(7-(3,5-difluorophenyl)-5-(trifluoromethyl)-7H-pyrrolo[2,3-d]pyrimidin-4-yl)-2,5-dimethylpiperazin-1-yl)-2,2-dimethylpropan-1-one] | – | – | 0.1 to 0.5 | < 0.1
17 | Cc1nccnc1-c1cn(-c2cc(F)cc(F)c2)c2ncnc(N3C[C@@H](C)N(C(=O)CC(C)C)C[C@@H]3C)c12 [Compound 177, 1-((2R,5S)-4-(7-(3,5-difluorophenyl)-5-(3-methylpyrazin-2-yl)-7H-pyrrolo[2,3-d]pyrimidin-4-yl)-2,5-dimethylpiperazin-1-yl)-3-methylbutan-1-one] | > 2 | 0.5 to 2 | – | –
18 | C[C@@H]1CN(c2ncnc3c2c(-c2ccccc2F)cn3-c2cc(F)ccn2)[C@@H](C)CN1C(=O)C(C)(C)O [Compound 169, 1-((2R,5S)-4-(5-(2-fluorophenyl)-7-(4-fluoropyridin-2-yl)-7H-pyrrolo[2,3-d]pyrimidin-4-yl)-2,5-dimethylpiperazin-1-yl)-2-hydroxy-2-methylpropan-1-one] | 0.1 to 0.5 | < 0.1 | – | –
19 | CC(C)C(=O)N1CCN(c2ncnc3c2c(-c2ccccc2F)cn3-c2cc(C#N)ccn2)CC1 [Compound 106, 2-(5-(2-fluorophenyl)-4-(4-isobutyrylpiperazin-1-yl)-7H-pyrrolo[2,3-d]pyrimidin-7-yl)isonicotinonitrile] | < 0.1 | 0.1 to 0.5 | – | –
20 | CC(C)C(=O)N1C[C@H](C)N(c2ncnc3c2c(C2CCC2)cn3-c2cccc(F)c2)C[C@H]1C [Compound 248, 1-((2R,5S)-4-(5-cyclobutyl-7-(3-fluorophenyl)-7H-pyrrolo[2,3-d]pyrimidin-4-yl)-2,5-dimethylpiperazin-1-yl)-2-methylpropan-1-one] | – | – | > 2 | > 2
